From patent publication US20260262643A1, “HERBICIDAL BENZOXAZINES” (FMC CORPORATION, priority 2022, published 2026)

Legend:
blackgrass [1] = test: Test A preemergence; type: in vivo, Alopecurus myosuroides
How it was run: (§1)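 Greenhouse pot test, 10 days. Compound (non-phytotoxic solvent, surfactant) sprayed on soil at seeding or on seedlings at one- to two-leaf stage. Visual injury rated 0–100 against untreated plants.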

corn [2] = test: Test A preemergence; type: in vivo, Zea mays
How it was run: as §1

foxtail, giant [3] = test: Test A preemergence; type: in vivo, Setaria faberi
How it was run: as §1

goosegrass [4] = test: Test A preemergence; type: in vivo, Eleusine indica
How it was run: as §1

kochia [5] = test: Test A preemergence; type: in vivo, Bassia scoparia
How it was run: as §1

oat, wild [6] = test: Test A preemergence; type: in vivo, Avena fatua
How it was run: as §1

pigweed, palmer [7] = test: Test A preemergence; type: in vivo, Amaranthus palmeri
How it was run: as §1

ragweed [8] = test: Test A preemergence; type: in vivo, Ambrosia artemisiifolia
How it was run: as §1

ryegrass, Italian [9] = test: Test A preemergence; type: in vivo, Lolium multiflorum
How it was run: as §1

soybean [10] = test: Test A preemergence; type: in vivo, Glycine max
How it was run: as §1

wheat [11] = test: Test A preemergence; type: in vivo, Triticum aestivum
How it was run: as §1

blackgrass [12] = test: Test A postemergence; type: in vivo, Alopecurus myosuroides; details: postemergence, 10 days
How it was run: as §1

corn [13] = test: Test A postemergence; type: in vivo, Zea mays; details: postemergence, 10 days
How it was run: as §1

foxtail, giant [14] = test: Test A postemergence; type: in vivo, Setaria faberi; details: postemergence, 10 days
How it was run: as §1

goosegrass [15] = test: Test A postemergence; type: in vivo, Eleusine indica; details: postemergence, 10 days
How it was run: as §1

kochia [16] = test: Test A postemergence; type: in vivo, Bassia scoparia; details: postemergence, 10 days
How it was run: as §1

oat, wild [17] = test: Test A postemergence; type: in vivo, Avena fatua; details: postemergence, 10 days
How it was run: as §1

pigweed, palmer [18] = test: Test A postemergence; type: in vivo, Amaranthus palmeri; details: postemergence, 10 days
How it was run: as §1

ragweed [19] = test: Test A postemergence; type: in vivo, Ambrosia artemisiifolia; details: postemergence, 10 days
How it was run: as §1

ryegrass, Italian [20] = test: Test A postemergence; type: in vivo, Lolium multiflorum; details: postemergence, 10 days
How it was run: as §1

soybean [21] = test: Test A postemergence; type: in vivo, Glycine max; details: postemergence, 10 days
How it was run: as §1

wheat [22] = test: Test A postemergence; type: in vivo, Triticum aestivum; details: postemergence, 10 days
How it was run: as §1

galium = test: Test A postemergence; type: in vivo, Galium aparine; details: postemergence, 10 days
How it was run: as §1

horseweed = test: Test A postemergence; type: in vivo, Erigeron canadensis; details: postemergence, 10 days
How it was run: as §1

barnyardgrass = test: Test B flooded paddy test; type: in vivo, Echinochloa crus-galli; details: 250 g ai/ha, Flood, 13 days, 0 to 100 scale (0 no effect, 100 complete control)
How it was run: (§2)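 Flooded to 3 cm at treatment time, 2-leaf plants got the test compound applied straight into the paddy water. They then stayed under constant flood in a greenhouse for 13 days. Ratings used a 0 to 100 visual scale.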

ducksalad = test: Test B flooded paddy test; type: in vivo, Heteranthera limosa; details: 250 g ai/ha, Flood, 13 days, 0 to 100 scale (0 no effect, 100 complete control)
How it was run: as §2

rice = test: Test B flooded paddy test; type: in vivo, Oryza sativa; details: 250 g ai/ha, Flood, 13 days, 0 to 100 scale (0 no effect, 100 complete control)
How it was run: as §2

sedge, umbrella = test: Test B flooded paddy test; type: in vivo, Cyperus difformis; details: 250 g ai/ha, Flood, 13 days, 0 to 100 scale (0 no effect, 100 complete control)
How it was run: as §2

[23] = 125 g ai/ha, visual injury after 10 days, 0 to 100 scale, 0 is no effect, 100 is complete control
[24] = 500 g ai/ha, 0 to 100 scale (0 no effect, 100 complete control), 10 days
[25] = 125 g ai/ha, 0 to 100 scale, 0 no effect, 100 complete control
[26] = 500 g ai/ha, visual injury, 0 to 100 scale (0 no effect, 100 complete control)

CC(C)Oc1ccc(-n2cnc(C(C)C)n2)cc1C(=O)N1C[C@H](C)Oc2c(Cl)cccc21 [Compound 108]
0: Plant response rating, Blackgrass (blackgrass [1]; [23]) | Plant response rating, Corn (corn [2]; [23]) | Plant response rating, Kochia (kochia [5]; [23])
20: Oat, Wild plant response rating (oat, wild [17]; [25]) | Ryegrass, Italian plant response rating (ryegrass, Italian [20]; [25]) | Plant response rating, Horseweed (horseweed; [26]) | Plant response rating, Ducksalad (ducksalad)
55: Plant response rating, Barnyardgrass (barnyardgrass)
30: Plant response rating, Corn (corn [2]; [24]) | Plant response rating, Oat, Wild (oat, wild [6]; [23]) | Plant response rating, Oat, Wild (oat, wild [6]; [24]) | Plant response rating, Ragweed (ragweed [8]; [23]) | Plant response rating, Wheat (wheat [11]; [23]) | Blackgrass plant response rating (blackgrass [12]; [25]) | Plant response rating, Blackgrass (blackgrass [12]; [26]) | Plant response rating, Wheat (wheat [22]; [26])
70: Foxtail, Giant plant response rating (foxtail, giant [14]; [25]) | Kochia plant response rating (kochia [16]; [25]) | Plant response rating, Oat, Wild (oat, wild [17]; [26]) | Pigweed, Palmer plant response rating (pigweed, palmer [18]; [25]) | Plant response rating, Pigweed, Palmer (pigweed, palmer [18]; [26])
60: Plant response rating, Corn (corn [13]; [26]) | Ragweed plant response rating (ragweed [19]; [25]) | Plant response rating, Ragweed (ragweed [19]; [26])
40: Plant response rating, Blackgrass (blackgrass [1]; [24]) | Plant response rating, Wheat (wheat [11]; [24]) | Corn plant response rating (corn [13]; [25]) | Plant response rating, Ryegrass, Italian (ryegrass, Italian [20]; [26])
100: Plant response rating, Foxtail, Giant (foxtail, giant [3]; [24]) | Plant response rating, Goosegrass (goosegrass [4]; [23]) | Plant response rating, Goosegrass (goosegrass [4]; [24]) | Plant response rating, Pigweed, Palmer (pigweed, palmer [7]; [23]) | Plant response rating, Pigweed, Palmer (pigweed, palmer [7]; [24]) | Plant response rating, Ryegrass, Italian (ryegrass, Italian [9]; [24]) | Plant response rating, Soybean (soybean [10]; [24]) | Soybean plant response rating (soybean [21]; [25]) | Plant response rating, Soybean (soybean [21]; [26])
80: Plant response rating, Kochia (kochia [5]; [24]) | Plant response rating, Ryegrass, Italian (ryegrass, Italian [9]; [23]) | Goosegrass plant response rating (goosegrass [15]; [25]) | Galium plant response rating (galium; [25]) | Plant response rating, Sedge, Umbrella (sedge, umbrella)
90: Plant response rating, Foxtail, Giant (foxtail, giant [3]; [23]) | Plant response rating, Ragweed (ragweed [8]; [24]) | Plant response rating, Foxtail, Giant (foxtail, giant [14]; [26]) | Plant response rating, Goosegrass (goosegrass [15]; [26]) | Plant response rating, Kochia (kochia [16]; [26]) | Plant response rating, Galium (galium; [26])
10: Wheat plant response rating (wheat [22]; [25]) | Horseweed plant response rating (horseweed; [25]) | Plant response rating, Rice (rice)
50: Plant response rating, Soybean (soybean [10]; [23])
